The values below come from patent US20260242340A1, “COMPOUNDS AND METHODS FOR TREATING PROTEIN AGGREGATION DISEASES” (ACELOT, INC., priority 2023, published 2026).

SMILES strings stand for the structures.

For the test, the target named is T1, amyloid beta peptide 42 (Aβ42) protein aggregates (Homo sapiens, UniProt P05067).
T1 construct: amyloid beta peptide 42 (Aβ42) protein aggregates
Briefly: Atomic force microscopy (AFM) of amyloid beta peptide protein aggregation. The class given is biochemical. The note with it: pre-incubated 10 μM Aβ42, 1:1 compound:Aβ42 ratio, 60 minutes after compound addition. On the procedure:
Atomic force microscopy (AFM) was utilized to study the effect of compound 1 on the formation of larger scale amyloid beta peptide 42 (Aβ42) protein aggregates and to determine the effect on pre-formed aggregates and fibrils. Amyloid beta peptide 42 protein aggregates are a major component of the amyloid plaques found in the brains of people with Alzheimer's disease. A 50 μL aliquot of 10 μM Aβ42 solution in 10 mM ammonium acetate was removed and drop-cast onto a mica disc, dried at ambient conditions in a desiccator, and imaged. It took approximately 5 min to prepare the peptide and for the disc to dry, making it the earliest time Aβ42 aggregation can be observed. After 5 min incubation, large globular aggregates formed but few fibrils were observed (FIG. 1A). After 60 min, there was a clear trend toward higher fibril content and larger oligomers. Thus, FIG. 1A represents a control, showing Aβ42 aggregation without the addition of any compound causing Aβ42 aggregation disruption.
Compound 1 was added to the same solution of pre-incubated Aβ42 in a 1:1 compound:Aβ42 ratio. The AFM image shown in FIG. 1B was taken at 60 minutes after compound 1 addition.

T1 sequence (P05067 672-713 limits assumed): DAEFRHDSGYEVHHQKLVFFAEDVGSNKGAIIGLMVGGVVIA

Consider `CC(=O)Nc1ccc2c(c1)CCN(CCc1cccc(Cl)c1)C2` [Compound 1], for which the “Aβ42 protein aggregation (AFM image, FIG. 1B)” value is reported as “dramatic reduction”.
